According to ChEMBL document CHEMBL4622979, “Non-rigid Diarylmethyl Analogs of Baloxavir as Cap-Dependent Endonuclease Inhibitors of Influenza Viruses” (J Med Chem, 2020):

How the values were obtained:
[1] = AUClast in CD1 mouse blood assessed as baloxavir acid level at 15 mg/kg, po administered as single dose measured up to 24 hrs by LC-MS/MS analysis; assay type: ADME, organism-based; details: in vivo
[2] = AUClast in CD1 mouse lung assessed as baloxavir acid level at 15 mg/kg, po administered as single dose by LC-MS/MS analysis; assay type: ADME, organism-based; details: in vivo
[3] = MRTlast in CD1 mouse kidney assessed as baloxavir acid level at 15 mg/kg, po administered as single dose measured up to 24 hrs by LC-MS/MS analysis; assay type: ADME, organism-based; details: in vivo
[4] = AUCinfinity in CD1 mouse plasma assessed as baloxavir acid level at 15 mg/kg, po administered as single dose measured up to 24 hrs by LC-MS/MS analysis; assay type: ADME, organism-based; parameters: dose 15 mg/kg, route oral, time infinity; details: in vivo
[5] = Ratio of Cmax in CD1 mouse lung to plasma assessed as baloxavir acid level at 15 mg/kg, po administered as single dose by LC-MS/MS analysis; assay type: ADME, organism-based; details: other tissue
[6] = AUCinfinity in CD1 mouse spleen assessed as baloxavir acid level at 15 mg/kg, po administered as single dose measured up to 24 hrs by LC-MS/MS analysis; assay type: ADME, organism-based; parameters: dose 15 mg/kg, route oral, time infinity; details: in vivo
[7] = Half life in CD1 mouse small intestine assessed as baloxavir acid level at 15 mg/kg, po administered as single dose measured up to 24 hrs by LC-MS/MS analysis; assay type: ADME, organism-based; details: in vivo
[8] = Cytotoxicity against human HepG2 cells assessed as reduction in cell viability measured after 24 hrs in presence of glucose by MTT assay; assay type: cell-based
[9] = Ratio of AUClast in CD1 mouse lung to plasma assessed as (12aR)-12-(Diphenylmethyl)-7-hydroxy-3,4,12,12a-tetrahydro-1H-[1,4]oxazino[3,4-c]pyrido[2,1-f ][1,2,4]triazine-6,8-dione level at 15 mg/kg, po administered as single dose measured up to 24 hrs by LC-MS/MS analysis; assay type: ADME, organism-based; details: other tissue
[10] = Tmax in CD1 mouse brain assessed as (12aR)-12-(Diphenylmethyl)-7-hydroxy-3,4,12,12a-tetrahydro-1H-[1,4]oxazino[3,4-c]pyrido[2,1-f ][1,2,4]triazine-6,8-dione level at 15 mg/kg, po administered as single dose measured up to 24 hrs by LC-MS/MS analysis; assay type: ADME, organism-based; details: in vivo
[11] = Half life in CD1 mouse blood assessed as (12aR)-12-(Diphenylmethyl)-7-hydroxy-3,4,12,12a-tetrahydro-1H-[1,4]oxazino[3,4-c]pyrido[2,1-f ][1,2,4]triazine-6,8-dione level at 15 mg/kg, po administered as single dose measured up to 24 hrs by LC-MS/MS analysis; assay type: ADME, organism-based; details: in vivo
[12] = Selectivity ratio of CC50 for human HepG2 cells assessed as reduction in cell viability measured after 24 hrs in presence of glucose to CC50 for human HepG2 cells assessed as reduction in cell viability measured after 24 hrs in presence of galactose; assay type: cell-based
[13] = MRTlast in CD1 mouse lung assessed as (12aR)-12-(Diphenylmethyl)-7-hydroxy-3,4,12,12a-tetrahydro-1H-[1,4]oxazino[3,4-c]pyrido[2,1-f ][1,2,4]triazine-6,8-dione level at 15 mg/kg, po administered as single dose measured up to 24 hrs by LC-MS/MS analysis; assay type: ADME, organism-based; details: in vivo
[14] = MRTlast in CD1 mouse kidney assessed as (12aR)-12-(Diphenylmethyl)-7-hydroxy-3,4,12,12a-tetrahydro-1H-[1,4]oxazino[3,4-c]pyrido[2,1-f ][1,2,4]triazine-6,8-dione level at 15 mg/kg, po administered as single dose measured up to 24 hrs by LC-MS/MS analysis; assay type: ADME, organism-based; details: in vivo
[15] = AUClast in CD1 mouse spleen assessed as (12aR)-12-(Diphenylmethyl)-7-hydroxy-3,4,12,12a-tetrahydro-1H-[1,4]oxazino[3,4-c]pyrido[2,1-f ][1,2,4]triazine-6,8-dione level at 15 mg/kg, po administered as single dose measured up to 24 hrs by LC-MS/MS analysis; assay type: ADME, organism-based; details: in vivo
[16] = Tmax in CD1 mouse trachea assessed as (12aR)-12-(Diphenylmethyl)-7-hydroxy-3,4,12,12a-tetrahydro-1H-[1,4]oxazino[3,4-c]pyrido[2,1-f ][1,2,4]triazine-6,8-dione level at 15 mg/kg, po administered as single dose measured up to 24 hrs by LC-MS/MS analysis; assay type: ADME, organism-based; details: in vivo
[17] = MRTlast in CD1 mouse muscle assessed as (12aR)-12-(Diphenylmethyl)-7-hydroxy-3,4,12,12a-tetrahydro-1H-[1,4]oxazino[3,4-c]pyrido[2,1-f ][1,2,4]triazine-6,8-dione level at 15 mg/kg, po administered as single dose measured up to 24 hrs by LC-MS/MS analysis; assay type: ADME, organism-based, Muscle tissue; details: in vivo
[18] = Tmax in CD1 mouse liver assessed as (12aR)-12-(Diphenylmethyl)-7-hydroxy-3,4,12,12a-tetrahydro-1H-[1,4]oxazino[3,4-c]pyrido[2,1-f ][1,2,4]triazine-6,8-dione level at 15 mg/kg, po administered as single dose measured up to 24 hrs by LC-MS/MS analysis; assay type: ADME, organism-based; details: in vivo
[19] = Elimination rate constant in CD1 mouse trachea assessed as (12aR)-12-(Diphenylmethyl)-7-hydroxy-3,4,12,12a-tetrahydro-1H-[1,4]oxazino[3,4-c]pyrido[2,1-f ][1,2,4]triazine-6,8-dione level at 15 mg/kg, po administered as single dose measured up to 24 hrs by LC-MS/MS analysis; assay type: ADME, organism-based; details: in vivo
[20] = Cmax in CD1 mouse blood assessed as (12aR)-12-(Diphenylmethyl)-7-hydroxy-3,4,12,12a-tetrahydro-1H-[1,4]oxazino[3,4-c]pyrido[2,1-f ][1,2,4]triazine-6,8-dione level at 15 mg/kg, po administered as single dose measured up to 24 hrs by LC-MS/MS analysis; assay type: ADME, organism-based; parameters: dose 15 mg/kg, route oral; details: in vivo
[21] = Ratio of AUClast in CD1 mouse heart to plasma assessed as (12aR)-12-(Diphenylmethyl)-7-hydroxy-3,4,12,12a-tetrahydro-1H-[1,4]oxazino[3,4-c]pyrido[2,1-f ][1,2,4]triazine-6,8-dione level at 15 mg/kg, po administered as single dose measured up to 24 hrs by LC-MS/MS analysis; assay type: ADME, organism-based; details: other tissue
[22] = Elimination rate constant in CD1 mouse lung assessed as (12aR)-12-(Diphenylmethyl)-7-hydroxy-3,4,12,12a-tetrahydro-1H-[1,4]oxazino[3,4-c]pyrido[2,1-f ][1,2,4]triazine-6,8-dione level at 15 mg/kg, po administered as single dose measured up to 24 hrs by LC-MS/MS analysis; assay type: ADME, organism-based; details: in vivo
[23] = Cytotoxicity against human HepG2 cells assessed as reduction in cell viability measured after 24 hrs in presence of galactose by MTT assay; assay type: cell-based
[24] = Elimination rate constant in CD1 mouse spleen assessed as (12aR)-12-(Diphenylmethyl)-7-hydroxy-3,4,12,12a-tetrahydro-1H-[1,4]oxazino[3,4-c]pyrido[2,1-f ][1,2,4]triazine-6,8-dione level at 15 mg/kg, po administered as single dose measured up to 24 hrs by LC-MS/MS analysis; assay type: ADME, organism-based; details: in vivo

For COC(=O)OCOc1c2n(ccc1=O)N([C@@H]1c3ccccc3SCc3c1ccc(F)c3F)[C@@H]1COCCN1C2=O [BALOXAVIR MARBOXIL], the AUClast [1] was 1381 ng·h/g, the AUClast [2] was 11909 ng·h/g and the MRTlast [3] was 4.27 h. It also gave an AUC [4] of 558 ng·h/mL, a Ratio [5] of 10.8 and an AUC [6] of 3640 ng·h/g. It also gave a t1/2 [7] of 3.13 h.
For COC(=O)OCOc1c2n(ccc1=O)N(C(c1ccccc1)c1ccccc1)[C@@H]1COCCN1C2=O, the CC50 at 24 h [8] was 51 µM, the “Ratio AUC” value [9] was 2.53 and the Tmax [10] was 0.5 h. The t1/2 [11] was 1.74 h, the selectivity ratio at 24 h [12] was 0.9 and the MRTlast [13] was 1.7 h. The MRTlast [14] was 2.5 h, the AUClast [15] was 4545 ng·h/g and the Tmax [16] was 0.5 h. For the same compound, the MRTlast [17] was 1.86 h, the Tmax [18] was 0.5 h and the Kel [19] was 0.14 h⁻¹. The Cmax [20] was 951 ng/g, the “Ratio AUC” value [21] was 3.38 and the Kel [22] was 0.44 h⁻¹. It also gave a CC50 at 24 h [23] of 57 µM and a Kel [24] of 0.39 h⁻¹.
